Usually inhibition stands for the percentage by which the read-out fell short of the control. A word on the IC50: it is the concentration that gives 50% inhibition.

One assay concerns cell lines. The experiment in a line: Selected cell proliferation inhibition data: cytotoxicity and IC50 determination (MTS/PMS, 72 hours), Tables 27 and 28. Particulars: Homo sapiens; for inhibition at 30 µM: 30 μM compound; for IC50: 72 hours, MTS. In kind it is cell-based. The method, then:
Selected Cell Proliferation Inhibition Data
All cells were cultured in media supplemented with 10% FBS except for which are marked specially, in the temperature of 37° C., 5% CO2 and 95% humidity. All culture media were purchased from GIBCO (USA, IMDM Cat. 12200-036; RPMI Medium 1640 Cat. 31800-022; 2-mercaptoethanol Cat. 21985-023).
• CellTiter 96® AQueous MTS reagent powder (Cat. No.: G11 12, Promega. Store MTS Reagent Powder desiccated at 4° C. protected from light.) • Phenazine methosulfate (PMS) (Product No.: P9625, SIGMA. Store PMS Powder desiccated at 4° C. protected from light.) Preparation of PMS Solution:
The following protocol is recommended for the preparation of 21 mL of MTS solution (sufficient for ten 96-well plates). • a. Select a light-protected container or wrap a container with foil. • b. Add 21 mL of DPBS to the container. • c. Weigh out 42 mg of MTS Reagent Powder and add to DPBS. • d. Mix at moderate speed on a magnetic stir plate for 15 minutes or until the MTS is completely dissolved. • e. Measure the pH of the MTS solution. The optimum pH is between pH 6.0 to 6.5. If the solution is above pH 6.5, adjust to pH 6.5 with 1N HC1. • f. Filter-sterilize the MTS solution through a 0.2 μm filter into a sterile, light protected container. • g. Store the MTS solution at −20° C., protected from light. Preparation of the Mixture of MTS/PMS: • a. In order to prepare reagents sufficient for one 96-well plate containing cells cultured in a 100 μL volume, thaw the MTS solution and the PMS solution. It should take approximately 90 minutes at room temperature or 10 minutes in a 37° C. water bath to completely thaw the 20 mL size of MTS solution. […] Remove 2.0 mL of MTS solution from the amber reagent bottle using aseptic technique and transfer to a test tube. • c. Add 100 μL of PMS solution to the 2.0 mL of MTS solution immediately before addition to the culture plate containing cells. • d. Gently swirl the tube to ensure complete mixing of the combined MTS/PMS solution. Equipment:
• 1. The cells were harvested respectively during the logarithmic growth period and counted with hemocytometer. The cell viability was over 98% by trypan blue exclusion. • 2. Cell concentrations were adjusted to 2.22×10^5 or 1.11×10^5 or 5.56×10^4 cells/mL with respective medium. • 3. 90 μL cell suspensions were added to 96-well plates (triplicates for each cell concentration), the final cell densities were 2×10^4 or 1×10^4 or 5×10^3 cells/well. The density of 5×10^3 cells/well was used for the first test. The appropriate cell density was determined and adjusted according to the results of the first test. • 4. The next day, test article or positive drugs were dissolved with DMSO as stock solution at the concentration of 20 mM. • 5. 10 μL drug solution was dispensed in each well (triplicate for each drug concentration). • 6. Plates were cultured for another 72 hours, then measured by means of MTS assay. • 7. MTS/PMS solution was prepared immediately prior to use. 20 μL of the mixture was introduced into each well of the 96-well assay plate containing 100 μL culture medium. (The final reaction volume was 120 μL). • 8. Plate was incubated for 1-4 hours at 37° C. in a humidified 5% CO2 atmosphere. • 9. Absorbance at 490 nm was recorded using SpectraMAX Plus microplate spectrophotometer. Data Analysis:
The software of GraphPad Prism version 5 was used to calculate IC50. The graphical curves were fitted using a nonlinear regression model with a sigmoidal dose.

The target in assay [1] is Enzyme (kinases of Table 30) (Homo sapiens, UniProt Q9P1W9). The experiment in a line: IC50 of Compound (nM) (ATP present at Km of enzyme), Table 30. In kind it is biochemical.
Chain of Enzyme (kinases of Table 30) (Homo sapiens, UniProt Q9P1W9) (Q9P1W9 whole entry): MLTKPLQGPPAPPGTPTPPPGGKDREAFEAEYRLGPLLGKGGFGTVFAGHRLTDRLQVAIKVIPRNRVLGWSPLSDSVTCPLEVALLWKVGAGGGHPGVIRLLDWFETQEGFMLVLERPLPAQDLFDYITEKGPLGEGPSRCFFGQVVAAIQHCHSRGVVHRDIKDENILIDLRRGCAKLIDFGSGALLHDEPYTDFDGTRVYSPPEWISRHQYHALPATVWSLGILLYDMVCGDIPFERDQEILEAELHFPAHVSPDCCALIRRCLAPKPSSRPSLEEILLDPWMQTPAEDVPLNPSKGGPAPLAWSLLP
Assay [2] deals with Enzyme (kinases of Table 30) (Homo sapiens, UniProt P11309). Described as above. In kind it is biochemical.
Chain of Enzyme (kinases of Table 30) (Homo sapiens, UniProt P11309) (P11309 whole entry): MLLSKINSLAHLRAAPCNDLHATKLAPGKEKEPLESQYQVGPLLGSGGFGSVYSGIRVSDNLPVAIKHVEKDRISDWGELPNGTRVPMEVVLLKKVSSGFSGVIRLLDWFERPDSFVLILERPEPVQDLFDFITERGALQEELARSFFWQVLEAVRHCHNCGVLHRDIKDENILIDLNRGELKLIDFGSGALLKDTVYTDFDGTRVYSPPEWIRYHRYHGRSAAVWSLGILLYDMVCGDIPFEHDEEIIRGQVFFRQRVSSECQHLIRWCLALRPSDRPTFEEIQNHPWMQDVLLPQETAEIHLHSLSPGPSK
Assay [3] deals with Enzyme (kinases of Table 30) (Homo sapiens, UniProt Q86V86). The description is as above. In kind it is biochemical.
[4] abbreviates: MV4-11 cell line, read-out: Percent inhibition at 30 μM of Compound, MV4-11.
The mark [5] stands for this setting: MV4-11 cell line, read-out: IC50 values, MV4-11.
Setting [6] is: NCI-H929 cell line, read-out: Percent inhibition at 30 μM of Compound, NCI-H929.
[7] abbreviates: NCI-H929 cell line, read-out: IC50 values, NCI-H929.
Where [8] appears, read: RPMI 8226 cell line, read-out: Percent inhibition at 30 μM of Compound, RPMI 8226.
Where [9] appears, read: RPMI 8226 cell line, read-out: IC50 values, RPMI 8226.
Where [10] appears, read: Pim-2(h), ATP present at Km of enzyme, read-out: IC50 of Compound, Pim-2(h).
[11] abbreviates: Pim-1(h), ATP present at Km of enzyme, read-out: IC50 of Compound, Pim-1(h).
[12] abbreviates: Pim-3(h), ATP present at Km of enzyme, read-out: IC50 of Compound, Pim-3(h).

Molecules are shown by their SMILES. Where two headings read alike, the source gives them in different places.

Regarding `Cc1cc(CNCC2CCN(c3nccc(/C=C4\SC(=O)NC4=O)n3)CC2)c2ccccc2n1` [Example 181, (Z)-5-((2-(4-((((2-methylquinolin-4-yl)methyl)amino)methyl)piperidin-1-yl)pyrimidin-4-yl)methylene)thiazolidine-2,4-dione], the inhibition at 30 µM in the assay on cell lines (setting [4]) turned out to be 96.6%; in the assay on cell lines (setting [6]), 93.5%; with cell lines (setting [8]), 82.2%. For the same compound, the IC50 in the assay with cell lines (setting [5]) is 1.2 µM; with cell lines (setting [7]), 4.42 µM; in the assay on cell lines (setting [9]), 3.41 µM.

For the compound `O=C1NC(=O)/C(=C/c2ccnc(N3CCC(CNCc4ccc5cc(F)ccc5n4)CC3)n2)S1` [compound 191], the 50% inhibitory concentration (IC50) is 0.023 µM in assay [1] (setting [10]), 0.006 µM in assay [2] (setting [11]) and 0.005 µM in assay [3] (setting [12]).

As to `Nc1cccc2c1CCN(c1nccc(/C=C3\SC(=O)NC3=O)n1)C2` [Example 120, (Z)-5-((2-(5-amino-3,4-dihydroisoquinolin-2(1H)-yl)pyrimidin-4-yl)methylene)thiazolidine-2,4-dione], the values for the inhibition at 30 µM with cell lines (setting [4]), in the assay on cell lines (setting [6]) and in the assay with cell lines (setting [8]) were 95.1%, 89.8% and 76.4%, respectively. In addition, the figures for the IC50 in the assay on cell lines (setting [5]), in the assay with cell lines (setting [7]) and with cell lines (setting [9]) were 4.05 µM, 2.81 µM and 1.54 µM, respectively.

In the case of `COc1cccc2ccc(CNCC3CCN(c4nccc(/C=C5\SC(=O)NC5=O)n4)CC3)nc12` [Example 189, (Z)-5-((2-(4-((((8-methoxyquinolin-2-yl)methyl)amino)methyl)piperidin-1-yl)pyrimidin-4-yl)methylene)thiazolidine-2,4-dione], the inhibition at 30 µM in the assay with cell lines (setting [4]) was 97.9%; with cell lines (setting [6]), 98.5%; in the assay with cell lines (setting [8]), 99.9%. Further, the IC50 is 4.71 µM in the assay with cell lines (setting [5]), 3.04 µM in the assay on cell lines (setting [7]) and 8.32 µM in the assay on cell lines (setting [9]).

For `O=C1NC(=O)/C(=C/c2ccnc(N3CCCC4NCCCC43)n2)S1` (stereo not shown) [compound 155], the IC50 in assay [1] turned out to be 0.014 µM; in assay [2] it was 0.019 µM; in assay [3] it was 0.009 µM.

On to `O=C1NC(=O)/C(=C/c2ccnc(N3CCCC4NCCCC43)n2)S1` (stereo not shown) [Example 155, (Z)-5-((2-(octahydro-1,5-naphthyridin-1(2H)-yl)pyrimidin-4-yl)methylene)thiazolidine-2,4-dione], for which the inhibition at 30 µM with cell lines (setting [4]) stood at 97.6%; in the assay with cell lines (setting [6]), 73.7%; in the assay with cell lines (setting [8]), 53.9%. Also, the 50% inhibitory concentration (IC50) in the assay with cell lines (setting [5]) stood at 12.5 µM; in the assay with cell lines (setting [7]), 3.96 µM.

With `CC1CCCN(c2nccc(/C=C3\SC(=O)NC3=O)n2)C1` (stereo not shown) [compound 117], the 50% inhibitory concentration (IC50) in assay [1] (setting [10]) was 0.05 µM; in assay [2] (setting [11]) it was 0.164 µM; in assay [3] (setting [12]), 0.436 µM.

On to `COc1cccc(CNCC2CCN(c3nccc(/C=C4\SC(=O)NC4=O)n3)CC2)n1` [Example 183, (Z)-5-((2-(4-((((6-methoxypyridin-2-yl)methyl)amino)methyl)piperidin-1-yl)pyrimidin-4-yl)methylene)thiazolidine-2,4-dione], for which the inhibition at 30 µM worked out at 94.4% in the assay on cell lines (setting [4]), 98.6% with cell lines (setting [6]) and 82.3% with cell lines (setting [8]). Also, the results for the IC50 with cell lines (setting [7]) and in the assay on cell lines (setting [9]) were 4.6 µM and 9.6 µM, respectively.

As to `O=C1NC(=O)/C(=C/c2ccnc(N3CCC(CNCc4ccc5ccccc5n4)CC3)n2)S1` [compound 180], the IC50 in assay [1] (setting [10]) turned out to be 0.015 µM; in assay [2] (setting [11]), 0.013 µM; in assay [3] (setting [12]), 0.015 µM.

Take `O=C1NC(=O)/C(=C/c2ccnc(NC3CNc4ccccc4C3)n2)S1` (stereo not shown) [Example 140, (Z)-5-((2-((1,2,3,4-tetrahydroquinolin-3-yl)amino)pyrimidin-4-yl)methylene)thiazolidine-2,4-dione]: the figures for the inhibition at 30 µM in the assay on cell lines (setting [4]), in the assay on cell lines (setting [6]) and in the assay with cell lines (setting [8]) were 94.3%, 96.7% and 65.3%, respectively. The concentration for half-maximal inhibition (IC50) in the assay on cell lines (setting [5]) was determined as 5.51 µM; with cell lines (setting [7]) it was 8.84 µM; with cell lines (setting [9]) it was 11.2 µM.

As to `O=C1NC(=O)/C(=C/c2ccnc(N3CCC(CNCc4ccc5ccccc5n4)CC3)n2)S1` [Example 180, (Z)-5-((2-(4-(((quinolin-2-ylmethyl)amino)methyl)piperidin-1-yl)pyrimidin-4-yl)methylene)thiazolidine-2,4-dione], the inhibition at 30 µM with cell lines (setting [4]) amounted to 90.7%; in the assay on cell lines (setting [6]), 100%; in the assay on cell lines (setting [8]), 79.7%. In addition, the IC50 was found to be 11 µM in the assay on cell lines (setting [5]), 10.9 µM in the assay with cell lines (setting [7]) and 9.13 µM in the assay on cell lines (setting [9]).

Regarding `Cc1cccc(CNCC2CCN(c3nccc(/C=C4\SC(=O)NC4=O)n3)CC2)n1` [compound 174], the results for the IC50 in assay [1] (setting [10]), in assay [2] (setting [11]) and in assay [3] (setting [12]) were 0.075 µM, 0.058 µM and 0.016 µM, respectively.

Consider `O=C1NC(=O)/C(=C/c2ccnc(N3CCC(CNCc4ccccn4)CC3)n2)S1` [compound 172], for which the IC50 in assay [1] (setting [10]) was 0.142 µM; in assay [2] (setting [11]), 0.157 µM; in assay [3] (setting [12]), 0.046 µM.

Turning to `O=C1NC(=O)/C(=C/c2ccnc(N3CCC(CNCc4cccc(-c5ccc(F)cc5)n4)CC3)n2)S1` [compound 204], the half-maximal inhibitory concentration (IC50) was found to be 0.217 µM in assay [1] (setting [10]), 0.099 µM in assay [2] (setting [11]) and 0.109 µM in assay [3] (setting [12]).

In the case of `Cc1cc(CNCC2CCN(c3nccc(/C=C4\SC(=O)NC4=O)n3)CC2)c2ccccc2n1` [compound 181], the concentration for half-maximal inhibition (IC50) in assay [1] (setting [10]) worked out at 0.044 µM; in assay [2] (setting [11]), 0.079 µM; in assay [3] (setting [12]), 0.034 µM.

As for `Cc1ccc(N2CCN(c3nccc(/C=C4\SC(=O)NC4=O)n3)CC2)cc1` [Example 9, (Z)-5-((2-(4-(p-tolyl)piperazin-1-yl)pyrimidin-4-yl)methylene)thiazolidine-2,4-dione], the inhibition at 30 µM with cell lines (setting [4]) was determined as 91.1%; in the assay with cell lines (setting [6]), 91.4%; in the assay with cell lines (setting [8]), 71.2%. The half-maximal inhibitory concentration (IC50) was 6.78 µM in the assay with cell lines (setting [5]), 11.5 µM in the assay with cell lines (setting [7]) and 16.1 µM with cell lines (setting [9]).

Turning to `O=C1NC(=O)/C(=C/c2ccnc(N3CCC(CNCc4ccc5cc(F)ccc5n4)CC3)n2)S1` [Example 191, (Z)-5-((2-(4-((((6-fluoroquinolin-2-yl)methyl)amino)methyl)piperidin-1-yl)pyrimidin-4-yl)methylene)thiazolidine-2,4-dione], the inhibition at 30 µM turned out to be 87.4% in the assay with cell lines (setting [4]), 94% in the assay on cell lines (setting [6]) and 93.1% with cell lines (setting [8]). In addition, the values for the IC50 in the assay with cell lines (setting [5]), in the assay with cell lines (setting [7]) and with cell lines (setting [9]) were 2.4 µM, 3.26 µM and 6.86 µM, respectively.

In the case of `O=C1NC(=O)/C(=C/c2ccnc(N3CCC(CNCc4nccc5ccccc45)CC3)n2)S1` [Example 182, (Z)-5-((2-(4-(((isoquinolin-1-ylmethyl)amino)methyl)piperidin-1-yl)pyrimidin-4-yl)methylene)thiazolidine-2,4-dione], the inhibition at 30 µM turned out to be 91.1% in the assay with cell lines (setting [4]), 96.5% in the assay on cell lines (setting [6]) and 90.2% with cell lines (setting [8]). Moreover, the 50% inhibitory concentration (IC50) in the assay with cell lines (setting [5]) amounted to 2.02 µM; with cell lines (setting [7]) it was 7.08 µM; with cell lines (setting [9]) it was 11.9 µM.
